Assay results: patent US20030176477A1 (priority 2000, published 2003)
Like-named read-outs stand apart in the source and are kept apart here.

Tests used:
Pyricularia oryzae [1] = assay: whole plant or invertebrate; format: in vivo; settings: foliar, 168 h, read-out: control value
Pyricularia oryzae [2] = assay: whole plant or invertebrate; format: in vivo; settings: 168 h, read-out: control value

| SMILES | pest or weed control at 500 ppm (Pyricularia oryzae [1]) [%] | pest or weed control at 500 ppm (Pyricularia oryzae [2]) [%] | melting point [°C] |
| --- | --- | --- | --- |
| O=CN(CNC(=O)c1snc(Cl)c1Cl)Cc1ccccc1 | > 80 | > 80 | 102 to 103 |
| N#CC(=CNNC(=O)c1snc(Cl)c1Cl)c1ccccc1 | – | – | 212 to 214 |
| CN(NC=C(C#N)c1ccccc1)C(=O)c1snc(Cl)c1Cl | – | – | 130 to 139 |
| O=C(NCC(O)CO)c1snc(Cl)c1Cl (stereo not shown) | – | – | 68 to 72 |
| CC1(C)OCC(CNC(=O)c2snc(Cl)c2Cl)O1 (stereo not shown) | – | – | 132 to 133 |
| N#C/C(=N\c1ccc(C(F)(F)F)cc1)NC(=O)c1snc(Cl)c1Cl | – | – | 151 to 153 |
| O=C(S)c1snc(Cl)c1Cl | – | – | 79 to 80 |
| Cc1c(-c2ccccc2)[nH]n(C(=O)c2snc(Cl)c2Cl)c1=O | – | – | 190 to 191 |
| COCNC(=O)c1snc(Cl)c1Cl | – | – | 79 to 87 |
| O=C(NC(Sc1nnc(-c2ccccc2)s1)C(F)(F)F)c1snc(Cl)c1Cl (stereo not shown) | – | – | 124 to 127 |
| O=C(NCO)c1snc(Cl)c1Cl [compound 45, N-hydroxymethyl-3,4-dichloro-5-isothiazolecarboxamide] | > 80 | – | – |
| O=C(NC(O)C(F)(F)F)c1snc(Cl)c1Cl (stereo not shown) [compound 48, N-(2,2,2-trifluoro-1-hydroxyethyl)-3,4-dichloro-5-isothiazolecarboxamide] | > 80 | – | 90 to 93 |
| CCOC(NC(=O)c1snc(Cl)c1Cl)C(F)(F)F (stereo not shown) [compound 49, N-(2,2,2-trifluoro-1-ethoxyethyl)-3,4-dichloro-5-isothiazolecarboxamide] | – | > 80 | 99 to 101 |
| O=C(Nc1ccc(C(F)(F)F)cc1)OCNC(=O)c1snc(Cl)c1Cl [compound 58, N-[N-(4-trifluoromethylphenyl)-carbamoyloxymethyl]-3,4-dichloro-5-isothiazolecarboxamide] | – | > 80 | 117 to 119 |
| O=C(NCSc1ccc(Cl)cc1)c1snc(Cl)c1Cl [compound 65, N-(4-chlorophenylthiomethyl)-3,4-dichloro-5-isothiazolecarboxamide] | > 80 | – | 106 to 107 |
| O=C(NCS(=O)(=O)c1ccccc1)c1snc(Cl)c1Cl [compound 71, N-phenylsulfonylmethyl-3,4-dichloro-5-isothiazolecarboxamide] | > 80 | – | 175 to 176 |
| Cn1nnnc1SCNC(=O)c1snc(Cl)c1Cl [compound 76, N-(1-methyl-5-tetrazolethiomethyl)-3,4-dichloro-5-isothiazolecarboxamide] | > 80 | > 80 | 176 to 177 |
| Cc1cc(C)n(COC(=O)c2snc(Cl)c2Cl)n1 [compound 98, 3,5-dimethylpyrazol-1-ylmethyl 3,4-dichloro-5-isothiazolecarboxylate] | > 80 | – | 80 to 81 |
| CCCC(NC(C)=O)NC(=O)c1snc(Cl)c1Cl (stereo not shown) [compound 112, N-[1-(acetamido)butyl]-3,4-dichloro-5-isothiazolecarboxamide] | > 80 | > 80 | 162 to 165 |
| Cn1nnnc1SCN(CNC(=O)c1snc(Cl)c1Cl)C(=O)c1snc(Cl)c1Cl [compound 154, N-[(3,4-dichloro-5-isothiazolecarboxamido)-methyl]-N-(1-methyl-5-tetrazolethiomethyl)-3,4-dichloro-5-isothiazolecarboxamide] | – | > 80 | 185 to 188 |
| O=C(c1snc(Cl)c1Cl)n1[nH]c(-c2ccc(Cl)cc2)cc1=O [compound 288] | – | > 80 | > 250 |
| CN(C)/C=N/C(=O)c1snc(Cl)c1Cl [compound 290, N-dimethylaminomethylidene-3,4-dichloro-5-iso thiazolecarboxamide] | – | > 80 | 196 to 197 |
